Test results reported in ChEMBL document CHEMBL4507285, “Data for DCP probe MRL-SYKi” (2021).

Assays:
[1] = target: TRAF2 and NCK-interacting protein kinase (Homo sapiens) (UniProt Q9UKE5); details: Compound concentration 100.0 nM
[2] = test system: Epidermal growth factor receptor (Homo sapiens), P00533 [L858R]; details: Compound concentration 100.0 nM
[3] = target: Inhibitor of nuclear factor kappa-B kinase subunit alpha (Homo sapiens) (UniProt O15111); details: Compound concentration 100.0 nM
[4] = target: Phosphatidylinositol 4-phosphate 5-kinase type-1 gamma (Homo sapiens) (UniProt O60331); details: Compound concentration 100.0 nM
Sequence of Phosphatidylinositol 4-phosphate 5-kinase type-1 gamma (Homo sapiens) (O60331 whole entry): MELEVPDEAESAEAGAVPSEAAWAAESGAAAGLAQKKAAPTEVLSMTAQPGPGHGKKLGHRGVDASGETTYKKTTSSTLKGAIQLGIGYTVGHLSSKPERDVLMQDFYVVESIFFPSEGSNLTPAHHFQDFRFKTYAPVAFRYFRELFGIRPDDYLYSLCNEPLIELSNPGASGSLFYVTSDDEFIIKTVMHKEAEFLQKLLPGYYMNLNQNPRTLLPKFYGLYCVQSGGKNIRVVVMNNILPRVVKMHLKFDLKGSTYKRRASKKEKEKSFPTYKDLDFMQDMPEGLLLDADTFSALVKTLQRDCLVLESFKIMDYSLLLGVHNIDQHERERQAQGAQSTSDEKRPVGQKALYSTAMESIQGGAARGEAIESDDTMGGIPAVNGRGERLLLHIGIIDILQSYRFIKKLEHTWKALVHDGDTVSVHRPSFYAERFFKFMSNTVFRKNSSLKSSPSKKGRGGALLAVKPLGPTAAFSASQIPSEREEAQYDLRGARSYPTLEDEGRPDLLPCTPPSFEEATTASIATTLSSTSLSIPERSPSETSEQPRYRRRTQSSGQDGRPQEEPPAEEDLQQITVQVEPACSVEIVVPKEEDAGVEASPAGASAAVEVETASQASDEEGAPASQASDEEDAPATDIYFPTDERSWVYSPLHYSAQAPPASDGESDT

[5] = target: Alpha-1D adrenergic receptor (Homo sapiens) (UniProt P25100); details: Compound concentration 10.0 uM
[6] = target: Phosphatidylinositol 5-phosphate 4-kinase type-2 beta (Homo sapiens) (UniProt P78356); details: Compound concentration 100.0 nM
[7] = target: Tyrosine-protein kinase JAK2 (Homo sapiens, UniProt O60674); details: Compound concentration 100.0 nM
[8] = target: Dual specificity mitogen-activated protein kinase kinase 4 (Homo sapiens) (UniProt P45985); details: Compound concentration 100.0 nM
[9] = target: Ephrin type-B receptor 2 (Homo sapiens) (UniProt P29323); details: Compound concentration 100.0 nM
Sequence of Ephrin type-B receptor 2 (Homo sapiens) (P29323 whole entry, the tested form may be a part): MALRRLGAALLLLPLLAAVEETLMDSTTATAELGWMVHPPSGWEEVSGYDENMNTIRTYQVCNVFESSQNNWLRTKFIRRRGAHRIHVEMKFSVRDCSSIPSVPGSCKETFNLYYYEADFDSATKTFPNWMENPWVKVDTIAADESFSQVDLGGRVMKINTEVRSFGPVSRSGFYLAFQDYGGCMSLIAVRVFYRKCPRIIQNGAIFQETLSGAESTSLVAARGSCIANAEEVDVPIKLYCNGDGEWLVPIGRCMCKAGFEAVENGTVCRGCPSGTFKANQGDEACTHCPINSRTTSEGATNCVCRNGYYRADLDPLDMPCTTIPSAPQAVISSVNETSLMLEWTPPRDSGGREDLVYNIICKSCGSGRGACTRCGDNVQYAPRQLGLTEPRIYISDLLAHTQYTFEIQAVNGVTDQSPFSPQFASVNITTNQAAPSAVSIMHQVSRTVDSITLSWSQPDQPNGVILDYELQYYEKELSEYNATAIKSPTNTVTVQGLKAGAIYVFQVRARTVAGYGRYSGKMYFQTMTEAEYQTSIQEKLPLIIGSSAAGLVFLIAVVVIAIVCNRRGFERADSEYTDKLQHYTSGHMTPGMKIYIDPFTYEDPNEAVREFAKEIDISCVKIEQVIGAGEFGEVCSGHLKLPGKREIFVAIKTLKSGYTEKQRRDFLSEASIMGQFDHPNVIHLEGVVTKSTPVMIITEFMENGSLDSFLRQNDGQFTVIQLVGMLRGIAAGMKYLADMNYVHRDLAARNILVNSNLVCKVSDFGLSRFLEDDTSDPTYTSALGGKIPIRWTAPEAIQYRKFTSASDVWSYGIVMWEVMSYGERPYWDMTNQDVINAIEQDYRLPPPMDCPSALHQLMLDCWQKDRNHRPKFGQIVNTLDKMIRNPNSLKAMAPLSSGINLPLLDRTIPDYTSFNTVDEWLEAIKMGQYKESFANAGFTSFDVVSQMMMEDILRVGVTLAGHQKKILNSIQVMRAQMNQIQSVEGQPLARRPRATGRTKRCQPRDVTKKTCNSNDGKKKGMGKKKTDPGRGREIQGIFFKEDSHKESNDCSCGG

[10] = target: Phosphatidylinositol 3-kinase C2 domain-containing subunit gamma (Homo sapiens) (UniProt O75747); details: Compound concentration 100.0 nM
[11] = target: Membrane-associated tyrosine- and threonine-specific cdc2-inhibitory kinase (Homo sapiens) (UniProt Q99640); details: Compound concentration 100.0 nM
[12] = target: Serine/threonine-protein kinase PAK 1 (Homo sapiens) (UniProt Q13153); details: Compound concentration 100.0 nM
[13] = target: Tyrosine-protein kinase JAK3 (Homo sapiens) (UniProt P52333); details: Compound concentration 100.0 nM
[14] = test system: Receptor-type tyrosine-protein kinase FLT3 (Homo sapiens), P36888 [D835V]; details: Compound concentration 100.0 nM
[15] = target: Serine/threonine-protein kinase NIM1 (Homo sapiens) (UniProt Q8IY84); details: Compound concentration 100.0 nM
[16] = target: GABA-A receptor; anion channel (Rattus norvegicus) (UniProt O09028+P15431+P18506+P18508+P19969+P20236+P23574+P23576+P28471+P28473+P30191+P62813+P63079+P63138+Q91ZM7+Q9ES14); details: Compound concentration 10.0 uM
[17] = test system: Epidermal growth factor receptor (Homo sapiens), P00533 [UNDEFINED MUTATION]; details: Compound concentration 100.0 nM
[18] = test system: Leucine-rich repeat serine/threonine-protein kinase 2 (Homo sapiens), Q5S007 [G2019S]; details: Compound concentration 100.0 nM
[19] = target: RAC-alpha serine/threonine-protein kinase (Homo sapiens) (UniProt P31749); details: Compound concentration 100.0 nM
[20] = target: Cyclin-dependent kinase 14 (Homo sapiens) (UniProt O94921); details: Compound concentration 100.0 nM
[21] = target: SRSF protein kinase 1 (Homo sapiens) (UniProt Q96SB4); details: Compound concentration 100.0 nM
Sequence of SRSF protein kinase 1 (Homo sapiens) (Q96SB4 whole entry): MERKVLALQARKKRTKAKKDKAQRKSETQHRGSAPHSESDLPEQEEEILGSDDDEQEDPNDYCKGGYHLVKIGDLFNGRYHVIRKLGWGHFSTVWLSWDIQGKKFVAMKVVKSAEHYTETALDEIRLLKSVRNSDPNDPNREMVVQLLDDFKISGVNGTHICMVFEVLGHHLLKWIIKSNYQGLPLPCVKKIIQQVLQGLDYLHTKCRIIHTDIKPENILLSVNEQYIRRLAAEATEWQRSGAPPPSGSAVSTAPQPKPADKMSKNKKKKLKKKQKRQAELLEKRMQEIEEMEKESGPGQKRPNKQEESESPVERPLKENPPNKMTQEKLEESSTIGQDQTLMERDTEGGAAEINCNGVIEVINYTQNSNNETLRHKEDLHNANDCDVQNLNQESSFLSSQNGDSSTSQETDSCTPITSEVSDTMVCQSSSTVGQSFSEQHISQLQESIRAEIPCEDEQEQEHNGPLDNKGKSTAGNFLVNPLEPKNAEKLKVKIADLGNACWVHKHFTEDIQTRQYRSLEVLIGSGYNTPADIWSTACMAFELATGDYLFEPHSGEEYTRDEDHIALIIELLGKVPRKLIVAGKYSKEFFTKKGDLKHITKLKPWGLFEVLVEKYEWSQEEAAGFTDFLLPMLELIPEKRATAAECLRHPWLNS

[22] = target: Cyclin-dependent kinase 9 (Homo sapiens) (UniProt P50750); details: Compound concentration 100.0 nM
[23] = target: Dual specificity mitogen-activated protein kinase kinase 1 (Homo sapiens) (UniProt Q02750); details: Compound concentration 100.0 nM
[24] = target: Platelet-derived growth factor receptor alpha (Homo sapiens) (UniProt P16234); details: Compound concentration 100.0 nM
[25] = target: Activin receptor type-2A (Homo sapiens) (UniProt P27037); details: Compound concentration 100.0 nM
[26] = target: Serine/threonine-protein kinase TAO3 (Homo sapiens) (UniProt Q9H2K8); details: Compound concentration 100.0 nM
[27] = target: Serine/threonine-protein kinase RIO1 (Homo sapiens) (UniProt Q9BRS2); details: Compound concentration 100.0 nM
[28] = target: Cyclin-dependent kinase 4 (Homo sapiens) (UniProt P11802); details: Compound concentration 100.0 nM
[29] = target: Serine/threonine-protein kinase B-raf (Homo sapiens) (UniProt P15056); details: Compound concentration 100.0 nM
[30] = target: Dual specificity protein kinase CLK4 (Homo sapiens) (UniProt Q9HAZ1); details: Compound concentration 100.0 nM
[31] = test system: Mast/stem cell growth factor receptor Kit (Homo sapiens), P10721 [A829P]; details: Compound concentration 100.0 nM
Sequence of Mast/stem cell growth factor receptor Kit (Homo sapiens), P10721 [A829P] (P10721 whole entry A829P): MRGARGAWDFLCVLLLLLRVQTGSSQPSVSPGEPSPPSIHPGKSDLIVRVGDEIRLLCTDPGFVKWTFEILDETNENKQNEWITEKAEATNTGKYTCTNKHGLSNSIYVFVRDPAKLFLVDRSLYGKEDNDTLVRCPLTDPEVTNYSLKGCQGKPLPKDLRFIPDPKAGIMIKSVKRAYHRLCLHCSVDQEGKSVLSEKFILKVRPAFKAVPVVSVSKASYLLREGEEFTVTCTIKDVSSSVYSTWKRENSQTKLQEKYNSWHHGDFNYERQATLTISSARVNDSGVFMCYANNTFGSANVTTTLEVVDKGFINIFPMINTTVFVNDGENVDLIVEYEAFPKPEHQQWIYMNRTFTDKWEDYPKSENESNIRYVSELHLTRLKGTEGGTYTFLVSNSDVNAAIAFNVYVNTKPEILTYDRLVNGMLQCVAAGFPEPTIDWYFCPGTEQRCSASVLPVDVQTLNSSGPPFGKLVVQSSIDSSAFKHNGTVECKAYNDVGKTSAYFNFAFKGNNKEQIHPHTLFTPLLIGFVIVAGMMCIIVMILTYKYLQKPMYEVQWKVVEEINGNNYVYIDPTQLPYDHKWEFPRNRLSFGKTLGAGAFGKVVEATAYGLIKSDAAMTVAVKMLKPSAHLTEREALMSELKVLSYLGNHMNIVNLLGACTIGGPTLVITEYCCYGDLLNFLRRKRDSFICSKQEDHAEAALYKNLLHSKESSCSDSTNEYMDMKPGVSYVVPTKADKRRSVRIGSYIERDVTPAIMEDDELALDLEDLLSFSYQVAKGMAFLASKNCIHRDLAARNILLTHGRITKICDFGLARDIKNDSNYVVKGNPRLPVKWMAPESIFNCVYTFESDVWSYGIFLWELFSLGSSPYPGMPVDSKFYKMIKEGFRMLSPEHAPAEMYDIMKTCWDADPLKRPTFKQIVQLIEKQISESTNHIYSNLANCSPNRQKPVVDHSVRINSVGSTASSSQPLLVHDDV

[32] = test system: Epidermal growth factor receptor (Homo sapiens), P00533 [UNDEFINED MUTATION]; details: Compound concentration 100.0 nM; remark: listed apart in the source
[33] = target: Tyrosine-protein kinase Fer (Homo sapiens, UniProt P16591); details: Compound concentration 100.0 nM
[34] = target: Insulin-like growth factor 1 receptor (Homo sapiens) (UniProt P08069); details: Compound concentration 100.0 nM
[35] = test system: Mast/stem cell growth factor receptor Kit (Homo sapiens), P10721 [D816H]; details: Compound concentration 100.0 nM
Sequence of Mast/stem cell growth factor receptor Kit (Homo sapiens), P10721 [D816H] (P10721 whole entry D816H): as the sequence (P10721 whole entry A829P) above, with D816H, P829A counted along it

[36] = target: Bone morphogenetic protein receptor type-1A (Homo sapiens) (UniProt P36894); details: Compound concentration 100.0 nM
[37] = target: Angiopoietin-1 receptor (Homo sapiens) (UniProt Q02763); details: Compound concentration 100.0 nM
[38] = target: Mitogen-activated protein kinase kinase kinase 1 (Homo sapiens) (UniProt Q13233); details: Compound concentration 100.0 nM
[39] = target: Cyclin-dependent kinase 2 homolog (Plasmodium falciparum (isolate 3D7)) (UniProt P61075); details: Compound concentration 100.0 nM
Sequence of Cyclin-dependent kinase 2 homolog (Plasmodium falciparum (isolate 3D7)) (P61075 whole entry): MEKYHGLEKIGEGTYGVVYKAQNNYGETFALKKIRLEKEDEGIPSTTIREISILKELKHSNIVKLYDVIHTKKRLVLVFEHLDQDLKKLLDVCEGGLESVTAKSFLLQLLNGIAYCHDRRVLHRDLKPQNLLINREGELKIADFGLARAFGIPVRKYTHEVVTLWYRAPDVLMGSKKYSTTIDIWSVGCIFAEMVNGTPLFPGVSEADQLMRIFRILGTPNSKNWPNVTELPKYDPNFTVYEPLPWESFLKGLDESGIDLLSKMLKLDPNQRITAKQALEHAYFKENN

[40] = target: Tyrosine-protein kinase Yes (Homo sapiens) (UniProt P07947); details: Compound concentration 100.0 nM
[41] = target: cAMP-dependent protein kinase catalytic subunit alpha (Homo sapiens) (UniProt P17612); details: Compound concentration 100.0 nM
[42] = target: Sodium-dependent dopamine transporter (Homo sapiens) (UniProt Q01959); details: Compound concentration 10.0 uM
[43] = target: Serine/threonine-protein kinase tousled-like 2 (Homo sapiens) (UniProt Q86UE8); details: Compound concentration 100.0 nM

Sequence of TRAF2 and NCK-interacting protein kinase (Homo sapiens) (Q9UKE5 whole entry, looked up): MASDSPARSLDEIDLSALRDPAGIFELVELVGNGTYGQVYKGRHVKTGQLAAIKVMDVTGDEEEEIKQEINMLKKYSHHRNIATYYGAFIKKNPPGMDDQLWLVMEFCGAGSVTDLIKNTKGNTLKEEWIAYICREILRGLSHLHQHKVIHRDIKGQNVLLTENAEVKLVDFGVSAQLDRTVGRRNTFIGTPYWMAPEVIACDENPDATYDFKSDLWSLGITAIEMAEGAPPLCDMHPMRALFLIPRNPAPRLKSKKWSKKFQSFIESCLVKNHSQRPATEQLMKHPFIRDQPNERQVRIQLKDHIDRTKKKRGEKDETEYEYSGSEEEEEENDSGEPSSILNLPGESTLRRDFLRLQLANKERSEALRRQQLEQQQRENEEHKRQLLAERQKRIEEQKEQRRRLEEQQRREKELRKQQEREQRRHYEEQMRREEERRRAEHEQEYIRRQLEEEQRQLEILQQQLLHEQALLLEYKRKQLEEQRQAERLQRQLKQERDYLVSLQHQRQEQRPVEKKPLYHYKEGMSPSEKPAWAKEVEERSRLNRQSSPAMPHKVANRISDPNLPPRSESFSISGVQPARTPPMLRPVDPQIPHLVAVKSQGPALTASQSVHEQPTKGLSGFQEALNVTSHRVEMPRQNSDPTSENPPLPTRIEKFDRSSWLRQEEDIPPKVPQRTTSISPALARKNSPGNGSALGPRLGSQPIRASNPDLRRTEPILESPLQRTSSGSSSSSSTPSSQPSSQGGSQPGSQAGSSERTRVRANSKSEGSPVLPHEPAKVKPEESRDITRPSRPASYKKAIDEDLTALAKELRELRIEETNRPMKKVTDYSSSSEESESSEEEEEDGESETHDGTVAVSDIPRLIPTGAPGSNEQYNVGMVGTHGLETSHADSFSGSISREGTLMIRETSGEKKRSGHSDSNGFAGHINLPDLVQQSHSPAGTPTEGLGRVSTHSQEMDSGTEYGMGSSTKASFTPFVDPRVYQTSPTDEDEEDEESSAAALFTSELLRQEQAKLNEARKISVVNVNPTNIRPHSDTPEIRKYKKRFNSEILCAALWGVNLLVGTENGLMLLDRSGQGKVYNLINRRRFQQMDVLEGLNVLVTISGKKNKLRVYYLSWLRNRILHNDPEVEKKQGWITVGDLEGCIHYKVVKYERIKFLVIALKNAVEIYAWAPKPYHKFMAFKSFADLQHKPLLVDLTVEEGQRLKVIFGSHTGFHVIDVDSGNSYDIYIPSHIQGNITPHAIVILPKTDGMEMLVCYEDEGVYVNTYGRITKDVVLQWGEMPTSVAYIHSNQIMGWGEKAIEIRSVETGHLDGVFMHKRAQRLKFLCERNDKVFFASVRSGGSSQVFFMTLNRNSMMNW

Cc1ccc(-c2cnc([C@@]3(O)CC[C@H](C(=O)O)C(C)(C)C3)s2)cc1Nc1cccc(C(F)(F)F)n1 [MRL-SYKi-NC]
active: residual activity [13] 42% | residual activity [39] 33% | inhibition [42] 71%
inactive: residual activity [1] 75.8% | residual activity [2] 76.6% | residual activity [3] 69.7% | residual activity [4] 100% | inhibition [5] -2.32% | residual activity [6] 61.3% | residual activity [7] 96.6% | residual activity [8] 81.2% | residual activity [9] 100% | residual activity [10] 59.6% | residual activity [11] 93.1% | residual activity [12] 94.5% | residual activity [14] 100% | residual activity [15] 100% | inhibition [16] 19% | residual activity [17] 100% | residual activity [18] 64.9% | residual activity [19] 92.3% | residual activity [20] 100% | residual activity [21] 89.7% | residual activity [22] 100% | residual activity [23] 95% | residual activity [24] 92.6% | residual activity [25] 96.9% | residual activity [26] 98.6% | residual activity [27] 100% | residual activity [28] 93.4% | residual activity [29] 100% | residual activity [30] 65.2% | residual activity [31] 61.5% | residual activity [32] 100% | residual activity [33] 95.4% | residual activity [34] 100% | residual activity [35] 61.4% | residual activity [36] 100% | residual activity [37] 95.2% | residual activity [38] 96% | residual activity [40] 100% | residual activity [41] 100% | residual activity [43] 89.9%

Cc1cc(Nc2nccc(C)n2)cc(-c2cnc([C@@]3(O)CC[C@H](C(=O)O)C(C)(C)C3)s2)c1 [MRL-SYKi]
active: residual activity [7] 45.5%
inactive: residual activity [1] 100% | residual activity [2] 75.3% | residual activity [3] 100% | residual activity [4] 92.4% | inhibition [5] -4.92% | residual activity [6] 79.6% | residual activity [8] 100% | residual activity [9] 100% | residual activity [10] 95.9% | residual activity [11] 100% | residual activity [12] 100% | residual activity [13] 60.9% | residual activity [14] 75.6% | residual activity [15] 100% | inhibition [16] 25.9% | residual activity [17] 100% | residual activity [18] 92.3% | residual activity [19] 100% | residual activity [20] 100% | residual activity [21] 97.7% | residual activity [22] 100% | residual activity [23] 100% | residual activity [24] 100% | residual activity [25] 85.6% | residual activity [26] 100% | residual activity [27] 100% | residual activity [28] 100% | residual activity [29] 100% | residual activity [30] 90.9% | residual activity [31] 100% | residual activity [32] 74% | residual activity [33] 100% | residual activity [34] 100% | residual activity [35] 97.7% | residual activity [36] 90.5% | residual activity [37] 99% | residual activity [38] 100% | residual activity [39] 100% | residual activity [40] 100% | residual activity [41] 100% | inhibition [42] 39.3% | residual activity [43] 100%
